Four compounds from US20210277441A1, “METHOD OF SELECTING A POLYPEPTIDE OF INTEREST” (IMPERIAL COLLEGE INNOVATIONS LIMITED, priority 2018, published 2021) can be followed below.

Assay [1] addresses Myxococcus stipitatus imine reductase (MsIRED) variant MsIRED-c (best previously described NADH-dependent variant, 5 residue substitutions) (Myxococcus stipitatus, UniProt L7U9F5). In words: Kinetics of MsIRED-c (best previously described NADH-dependent variant), 2-methylpyrroline reduction with NADH. It counts as biochemical. As to conditions: cofactor NADH (0.25 mM); enzyme 1.2675 uM.

Assay [2] deals with Enterobacter cloacae nitroreductase (EntNFSB) variant EntNFSB-s1, S40A/T41I/F124A, SEQ ID NO: 38 (Enterobacter cloacae, UniProt Q01234, F124A/S40A/T41I). In words: Kinetics of evolved EntNFSB-s1, 2-nitrobenzoic acid reduction with NADH. As to conditions: cofactor NADH; enzyme 1 uM.
The target in assay [3] is Enterobacter cloacae nitroreductase (EntNFSB) variant EntNFSB-s2, T41L/Y68L/F124L, SEQ ID NO: 40 (Enterobacter cloacae, UniProt Q01234, F124L/T41L/Y68L). It counts as biochemical. The note with it: cofactor NADH; enzyme 1 uM.
Another assay has as its system AL cells. The assay is described as follows: 1H NMR analysis of fermentation broth of anaerobic cultures. It counts as cell-based, Escherichia coli. As to conditions: no exogenous substrate.
The test system of assay [4] is LS1 strain (ΔadhE ΔldhA double mutant) cells. In words: Metabolic complementation (anaerobic growth recovery) of LS1/AL strain. The note with it: LS1, no exogenous substrate. It counts as cell-based, Escherichia coli. As for the experimental part: (§1) The LS1 mutant strain and the parental BW25113 strain were transformed with the desired plasmid and overnight pre-cultures were grown aerobically in 15 mL Falcon tubes with M9 media (0.4% glucose). These pre-cultures were used to inoculate 10 mL Hungate tubes with M9 medium (0.4% glucose) supplemented with 100 μg/mL ampicillin, 1 mM IPTG and with or without the specific substrate of the dehydrogenase under anaerobic conditions at 37° C. Metabolic complementation was assessed by measuring the optical density at 600 nm every two hours during daytime.

Another assay concerns LS5 strain. The assay is described as follows: Metabolic complementation (anaerobic growth) of quadruple mutant. It counts as cell-based, Escherichia coli. As for the experimental part: as §1
Since in the triple mutants the non-deleted transhydrogenase could still be supporting anaerobic growth under anaerobic fermentation conditions when complemented with an NADPH-dependent oxidoreductase by generating oxidized NAD, the inventors generated a quadruple mutant where adhE, ldhA, sthA and pntA genes were deleted (LS5 strain, FIG. 11).

Enterobacter cloacae nitroreductase (EntNFSB) variant EntNFSB-s2, T41L/Y68L/F124L, SEQ ID NO: 40, sequence (Q01234 whole entry T41L/Y68L/F124L): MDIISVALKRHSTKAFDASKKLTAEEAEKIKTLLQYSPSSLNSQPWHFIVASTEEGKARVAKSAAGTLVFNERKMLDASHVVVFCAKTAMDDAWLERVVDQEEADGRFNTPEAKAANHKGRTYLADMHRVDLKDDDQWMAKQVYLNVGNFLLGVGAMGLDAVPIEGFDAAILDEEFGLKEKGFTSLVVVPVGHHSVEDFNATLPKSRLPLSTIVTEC
Enterobacter cloacae nitroreductase (EntNFSB) variant EntNFSB-s1, S40A/T41I/F124A, SEQ ID NO: 38, sequence (Q01234 whole entry S40A/T41I/F124A): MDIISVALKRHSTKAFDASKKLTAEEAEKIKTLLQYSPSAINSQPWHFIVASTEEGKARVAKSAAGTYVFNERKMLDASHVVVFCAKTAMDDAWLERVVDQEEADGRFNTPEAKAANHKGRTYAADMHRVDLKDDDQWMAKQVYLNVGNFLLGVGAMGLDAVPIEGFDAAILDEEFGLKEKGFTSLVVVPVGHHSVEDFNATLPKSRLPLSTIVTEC

In general, Km refers to the substrate concentration at which the rate is half of its maximum. A word on the kcat: it is the maximal rate divided by the concentration of active sites. With `CC1=NCCC1` [2-methylpyrroline, 2-methyl-1-pyrroline], in assay [1], the Km turned out to be 41.8 mM and the kcat amounted to 1.993 s⁻¹.

For the compound `O=C(O)c1ccccc1[N+](=O)[O-]` [2-nitrobenzoic acid], the kcat in assay [2] was 0.0195 s⁻¹.

As to `O=[N+]([O-])c1ccc(CO)cc1` [4-nitrobenzyl alcohol], in assay [3], the Km is 1.11 mM and the kcat came to 0.0725 s⁻¹.

For “pLS1: pUC19 with ADH NADH-dependent from Escherichia coli (adhE)”, in the assay on AL cells, the Acetate concentration came out at 12.1, the Ethanol concentration came out at 13.8, the Formate concentration is 20.7 and the Lactate concentration worked out at 0. The compound also had a Succinate concentration in the assay on AL cells of 5.2. Also, the anaerobic growth recovery entry in assay [4] is given as “restoration of ability to grow anaerobically”. Moreover, the anaerobic growth entry in the assay on LS5 strain is given as “anaerobic growth is restored”.
